The values below come from patent publication US20260125371A1, “METHOD FOR INHIBITING CLOSTRIDIOIDES DIFFICILE SPORE GERMINATION” (UNIVERSITY OF NOTRE DAME DU LAC, priority 2022, published 2026).

In brackets after ≈: the same amount, converted by molar mass. Read-outs that look alike come from different tables or passages of the source.

In one experiment the test system is C. difficile ATCC 43255. In words: Determination of minimal-inhibitory concentrations (microdilution), C. difficile ATCC 43255. The format is cell-based, Clostridioides difficile. The note with it: for MIC: Clostridioides difficile; for MIC C. difficile: Table 1; for ATCC43255 MIC: C. difficile ATCC43255.
In another experiment the test system is THP-1 cells. The experiment is described as follows: Lactate dehydrogenase (LDH) cytotoxicity assay. Format: cell-based, human. The note with it: for IC50: Homo sapiens, read-out: LDH (IC50).
Experiment [1] has as its system C. difficile strain ATCC43255 spores. In words: Spore germination inhibition assay. The format is cell-based, Clostridioides difficile. The note with it: compound 45 μM, germinant 6 mM taurocholate and 12 mM glycine, OD600 over 60 min, duplicate; for inhibition at 45 µM: Clostridioides difficile, 1 h.
The next experiment relates to S. aureus. The experiment is described as follows: MIC against S. aureus strains. Format: cell-based. The note with it: S. aureus ATCC 29213, 24 h; for MIC: Staphylococcus aureus, ATCC29213, 24 h, read-out: MIC (μg/mL) 24 h.
The mark [2] stands for this setting: ATCC43255, 24 h, C. difficile ATCC 43255, 24 h, read-out: MIC (μg/mL) 24 h.
Setting [3] is: ATCC43255, Table 1, strain ATCC 43255, read-out: MIC C. difficile.
Setting [4] is: ATCC43255, C. difficile ATCC43255, read-out: ATCC43255 MIC.
Where [5] appears, read: C. difficile ATCC 43255, 48-h incubation.

With `Oc1ccc(-c2noc(-c3ccc(OC4CCCC4)cc3)n2)cc1` [Compound 137, 5-(4-(Cyclopentyloxy)phenyl)-3-(4-hydroxyphenyl)-1,2,4-oxadiazole], the MIC in the experiment on C. difficile ATCC 43255 (setting [2]) and in the experiment on C. difficile ATCC 43255 (setting [3]) was 4 µg/mL (≈ 12.4 µM) throughout. The IC50 in the experiment with THP-1 cells (THP-1 cells, 24 h) is 8.5 ± 0.2 µg/mL (≈ 26.4 µM).
For the compound `Nc1cc(Oc2ccccc2)cnc1-c1noc(-c2ccc(O)cc2)n1` [MAB-02-27A], in experiment [1], the inhibition at 45 µM worked out at 17 ± 1%. Also, the MIC in the experiment on C. difficile ATCC 43255 (setting [4]) was more than 128 µg/mL.
The like results for `NCc1ccc(-c2nc(-c3ccnc(Oc4ccc(C(F)(F)F)cc4)c3)no2)cc1` [YQ-4-104] were, in that order, 74 ± 5% and 8 µg/mL (≈ 19.4 µM).
For `NCc1ccc(-c2nc(-c3ccc(OC4CCCC4)cc3)no2)cc1` [YQ-4-81], in that order: 41 ± 1% and 4 µg/mL (≈ 11.9 µM).
For `NCCc1ccc(-c2nc(-c3ccc(Oc4ccc(F)cc4)cn3)no2)cc1` [YQ-4-170], in that order: 48 ± 2% and 8 µg/mL (≈ 21.3 µM).
Consider `O=[N+]([O-])c1c[nH]nc1-c1nc(-c2ccc3oc4ccccc4c3c2)no1` [Compound 118, 3-(Dibenzo[b,d]furan-2-yl)-5-(4-nitro-1H-pyrazol-3-yl)-1,2,4-oxadiazole], for which the values for the MIC with S. aureus, in the experiment with C. difficile ATCC 43255 (setting [2]) and with C. difficile ATCC 43255 (setting [3]) were 2 µg/mL (≈ 5.76 µM), 4 µg/mL (≈ 11.5 µM) and 4 µg/mL (≈ 11.5 µM), respectively. The IC50 with THP-1 cells (THP-1, 24 h) was 9.8 ± 3.3 µg/mL (≈ 28.2 µM).
`O=[N+]([O-])c1c[nH]nc1-c1nc(-c2ccc(OC(F)(F)F)cc2)no1` [Compound 115, 5-(4-Nitro-1H-pyrazol-3-yl)-3-(4-(trifluoromethoxy)phenyl)-1,2,4-oxadiazole]: the MIC in the experiment on C. difficile ATCC 43255 (setting [2]) came out at 2 µg/mL (≈ 5.86 µM); in the experiment with C. difficile ATCC 43255 (setting [3]), 4 µg/mL (≈ 11.7 µM). Moreover, the IC50 with THP-1 cells (THP-1, 24 h) amounted to 25 ± 4 µg/mL (≈ 73.3 µM).
On to `NCc1ccc(-c2nc(-c3ccc(OC4CCCCC4)cc3)no2)cc1` [YQ-4-165], for which, in experiment [1], 45 µM produced 50 ± 2% inhibition. For the same compound, the MIC in the experiment on C. difficile ATCC 43255 (setting [4]) worked out at 8 µg/mL (≈ 22.9 µM).
As to `Oc1ccc(-c2nc(-c3ccc(Oc4ccc(C(F)(F)F)cc4)cc3)no2)cc1` [Compound 9], the “MIC (μg/mL) 24 h” value against S. aureus was found to be 1 µg/mL (≈ 2.51 µM); with C. difficile ATCC 43255 (C. difficile ATCC 43255, 24 h), 2 µg/mL (≈ 5.02 µM). Moreover, the “MIC (μg/mL) 48 h” value in the experiment with C. difficile ATCC 43255 (setting [5]) turned out to be 2 µg/mL (≈ 5.02 µM). For the same compound, in the experiment with C. difficile ATCC 43255 (strain ATCC 43255), the “MIC C. difficile” value was 2 µg/mL (≈ 5.02 µM). Besides, the “LDH (IC50)” value with THP-1 cells (THP-1 cells, 24 h) turned out to be 17 ± 1 µg/mL.
For the compound `Cl.NCc1ccc(-c2nc(-c3ccc(Oc4ccc(C(F)(F)F)cc4)cc3)no2)cc1` [Compound 17, (4-(3-(4-(4-(Trifluoromethyl)phenoxy)phenyl)-1,2,4-oxadiazol-5-yl)phenyl) methanamine hydrochloride salt], the MIC was 2 to 4 µg/mL in the experiment with S. aureus, 4 µg/mL in the experiment with C. difficile ATCC 43255 (setting [2]) and 4 µg/mL in the experiment with C. difficile ATCC 43255 (setting [3]). In the experiment with THP-1 cells (THP-1 cells, 24 h), the IC50 turned out to be 4.4 ± 0.7 µg/mL.
Regarding `C#Cc1ccc(Oc2cnc(-c3noc(-c4ccc(CN)cc4)n3)cc2C2(C(F)(F)F)N=N2)cc1` [YQ-4-169], the “% Spore Germination Inhibition at 45 μM” value in experiment [1] is 63 ± 3%. Besides, the “ATCC43255 MIC” value in the experiment on C. difficile ATCC 43255 was 8 µg/mL.
With `NCc1ccc(-c2nc(-c3ccc(Oc4ccc(F)cc4)cc3)no2)cc1` [DR-05-250], the inhibition at 45 µM in experiment [1] stood at 73 ± 5%. The MIC in the experiment with C. difficile ATCC 43255 (setting [4]) is more than 128 µg/mL.
On to `Oc1ccc(-c2nc(-c3ccc(Oc4ccc(C(F)(F)F)cc4)cc3)no2)cc1F` [Compound 10], for which the “MIC (μg/mL) 24 h” value in the experiment with S. aureus was 2 µg/mL (≈ 4.8 µM); against C. difficile ATCC 43255 (C. difficile ATCC 43255, 24 h), 4 µg/mL (≈ 9.61 µM). The “MIC (μg/mL) 48 h” value in the experiment on C. difficile ATCC 43255 (setting [5]) came to 4 µg/mL (≈ 9.61 µM). Besides, the “MIC C. difficile” value in the experiment with C. difficile ATCC 43255 (strain ATCC 43255) came out at 4 µg/mL (≈ 9.61 µM). Also, the “LDH (IC50)” value in the experiment on THP-1 cells (THP-1 cells, 24 h) was 5.2 ± 0.02 µg/mL.
In the case of `CC(C)Oc1ccc(-c2noc(-c3ccc(CN)cc3)n2)cc1C(F)(F)F` [YQ-4-155], the inhibition at 45 µM in experiment [1] is 33 ± 1%. The MIC in the experiment with C. difficile ATCC 43255 (setting [4]) amounted to 16 µg/mL (≈ 42.4 µM).
In the case of `NCc1ccc(-c2nc(-c3ccc(Oc4ccc(F)c(F)c4)cn3)no2)cc1` [YQ-4-99], testing at 45 µM in experiment [1] gave an inhibition of 44 ± 3%. In the experiment on C. difficile ATCC 43255 (setting [4]), the MIC was found to be 8 µg/mL (≈ 21 µM).
Turning to `Oc1c(F)cc(-c2nc(-c3ccc(Oc4ccc(C(F)(F)F)cc4)cc3)no2)cc1F` [Compound 11], the “MIC (μg/mL) 24 h” value with S. aureus is 2 µg/mL (≈ 4.6 µM); against C. difficile ATCC 43255 (C. difficile ATCC 43255, 24 h) it was 4 µg/mL (≈ 9.21 µM). Moreover, the “MIC (μg/mL) 48 h” value in the experiment on C. difficile ATCC 43255 (setting [5]) was 4 µg/mL (≈ 9.21 µM). Besides, the “MIC C. difficile” value in the experiment on C. difficile ATCC 43255 (strain ATCC 43255) worked out at 4 µg/mL (≈ 9.21 µM). Moreover, the “LDH (IC50)” value in the experiment with THP-1 cells (THP-1 cells, 24 h) was 18 ± 2 µg/mL.
Take `NCc1ccc(-c2nc(-c3ccnc(-c4ccc(C(F)(F)F)cc4)c3)no2)cc1` [YQ-4-163]: in experiment [1], testing at 45 µM gave an inhibition of 68 ± 5%. For the same compound, the MIC in the experiment on C. difficile ATCC 43255 (setting [4]) amounted to 16 µg/mL (≈ 40.4 µM).
Consider `O=[N+]([O-])c1cc(-c2nc(-c3ccc(Oc4ccc(C(F)(F)F)cc4)cc3)no2)cnc1O` [Compound 16], for which the “MIC (μg/mL) 24 h” value in the experiment on S. aureus came out at 8 µg/mL (≈ 18 µM); with C. difficile ATCC 43255 (C. difficile ATCC 43255, 24 h) it was 2 µg/mL (≈ 4.5 µM). For the same compound, the “MIC (μg/mL) 48 h” value with C. difficile ATCC 43255 (setting [5]) is 2 µg/mL (≈ 4.5 µM). For the same compound, the “MIC C. difficile” value against C. difficile ATCC 43255 (strain ATCC 43255) was found to be 2 µg/mL (≈ 4.5 µM). For the same compound, in the experiment with THP-1 cells (THP-1 cells, 24 h), the “LDH (IC50)” value is 37 ± 11 µg/mL.
On to `Oc1ccc(-c2nc(-c3ccc(Oc4ccccc4CBr)cc3)no2)cc1` [MAB-02-59A], for which, in experiment [1], the inhibition at 45 µM is 30 ± 3%. In the experiment on C. difficile ATCC 43255 (setting [4]), the MIC is more than 128 µg/mL.
As for `NCCCCc1nc(-c2ccc(Oc3ccc(C(F)(F)F)cc3)cc2)no1` [DR-06-025], 45 µM produced 44 ± 2% inhibition in experiment [1]. In the experiment with C. difficile ATCC 43255 (setting [4]), the MIC is more than 128 µg/mL.
The like results for `NCc1ccc(-c2noc(-c3ccnc(-c4ccc(C(F)(F)F)cc4)c3)n2)cc1` [YQ-4-161] were, in that order, 55 ± 1% and more than 128 µg/mL.
For `O=[N+]([O-])c1ccccc1Oc1ccc(-c2noc(-c3ccc(O)cc3)n2)nc1` [MAB-02-29A], in that order: 26 ± 1% and more than 128 µg/mL.
As for `Oc1ccc(-c2nc(-c3ccc(Oc4ccc(I)cc4)cc3)no2)cc1` [MAB-01-250A], in experiment [1], the “% Spore Germination Inhibition at 45 μM” value turned out to be 62 ± 2%. Moreover, the “ATCC43255 MIC” value with C. difficile ATCC 43255 is more than 128 µg/mL.
In the case of `Oc1ccc(-c2nc(-c3ccc(OC4CCCC=C4Br)cc3)no2)cc1` (stereo not shown) [Compound 99, 4-(3-(4-((2-Bromocyclohex-2-en-1-yl)oxy)phenyl)-1,2,4-oxadiazol-5-yl)phenol], the MIC is 4 µg/mL (≈ 9.68 µM) in the experiment on S. aureus; 2 µg/mL (≈ 4.84 µM) in the experiment on C. difficile ATCC 43255 (setting [2]); 2 µg/mL (≈ 4.84 µM) in the experiment with C. difficile ATCC 43255 (ATCC43255, 48 h, C. difficile ATCC 43255, 48-h incubation, read-out: MIC (μg/mL) 48 h); 2 µg/mL (≈ 4.84 µM) with C. difficile ATCC 43255 (setting [3]). Moreover, the IC50 with THP-1 cells (THP-1, 24 h) stood at 8.4 ± 0.3 µg/mL (≈ 20.3 µM).
For `O=[N+]([O-])c1c[nH]nc1-c1nc(-c2ccc(Oc3ccc(C(F)(F)F)cc3)cc2)no1` [Compound 30], the “MIC (μg/mL) 24 h” value is 2 µg/mL (≈ 4.79 µM) against S. aureus and 4 µg/mL (≈ 9.59 µM) in the experiment with C. difficile ATCC 43255 (C. difficile ATCC 43255, 24 h). In the experiment with C. difficile ATCC 43255 (setting [5]), the “MIC (μg/mL) 48 h” value worked out at 4 µg/mL (≈ 9.59 µM). In the experiment on C. difficile ATCC 43255 (strain ATCC 43255), the “MIC C. difficile” value is 4 µg/mL (≈ 9.59 µM). For the same compound, the “LDH (IC50)” value with THP-1 cells (THP-1 cells, 24 h) was found to be 21 ± 5 µg/mL.
On to `O=C1CC(c2nc(-c3ccc(Oc4ccc(C(F)(F)F)cc4)cc3)no2)CN1` (stereo not shown) [DR-03-138], for which, in experiment [1], the inhibition at 45 µM was determined as 30 ± 14%. Moreover, the MIC with C. difficile ATCC 43255 (setting [4]) is more than 128 µg/mL.
